Measurements reported in ChEMBL document CHEMBL3351473, “Synthesis and biological evaluation of α-1-C-4'-arylbutyl-L-arabinoiminofuranoses, a new class of α-glucosidase inhibitors” (Bioorg Med Chem Lett, 2014).

Tests used:
[1] = Inhibition of Wistar rat intestinal maltase assessed as inhibition of D-glucose release after 30 mins by spectrophotometry
[2] = target: T1, Sucrase-isomaltase, intestinal (Rattus norvegicus, UniProt P23739); assay: Inhibition of Wistar rat intestinal sucrase assessed as inhibition of D-glucose release after 30 mins by spectrophotometry
T1 sequence (P23739 1-1013 limits assumed): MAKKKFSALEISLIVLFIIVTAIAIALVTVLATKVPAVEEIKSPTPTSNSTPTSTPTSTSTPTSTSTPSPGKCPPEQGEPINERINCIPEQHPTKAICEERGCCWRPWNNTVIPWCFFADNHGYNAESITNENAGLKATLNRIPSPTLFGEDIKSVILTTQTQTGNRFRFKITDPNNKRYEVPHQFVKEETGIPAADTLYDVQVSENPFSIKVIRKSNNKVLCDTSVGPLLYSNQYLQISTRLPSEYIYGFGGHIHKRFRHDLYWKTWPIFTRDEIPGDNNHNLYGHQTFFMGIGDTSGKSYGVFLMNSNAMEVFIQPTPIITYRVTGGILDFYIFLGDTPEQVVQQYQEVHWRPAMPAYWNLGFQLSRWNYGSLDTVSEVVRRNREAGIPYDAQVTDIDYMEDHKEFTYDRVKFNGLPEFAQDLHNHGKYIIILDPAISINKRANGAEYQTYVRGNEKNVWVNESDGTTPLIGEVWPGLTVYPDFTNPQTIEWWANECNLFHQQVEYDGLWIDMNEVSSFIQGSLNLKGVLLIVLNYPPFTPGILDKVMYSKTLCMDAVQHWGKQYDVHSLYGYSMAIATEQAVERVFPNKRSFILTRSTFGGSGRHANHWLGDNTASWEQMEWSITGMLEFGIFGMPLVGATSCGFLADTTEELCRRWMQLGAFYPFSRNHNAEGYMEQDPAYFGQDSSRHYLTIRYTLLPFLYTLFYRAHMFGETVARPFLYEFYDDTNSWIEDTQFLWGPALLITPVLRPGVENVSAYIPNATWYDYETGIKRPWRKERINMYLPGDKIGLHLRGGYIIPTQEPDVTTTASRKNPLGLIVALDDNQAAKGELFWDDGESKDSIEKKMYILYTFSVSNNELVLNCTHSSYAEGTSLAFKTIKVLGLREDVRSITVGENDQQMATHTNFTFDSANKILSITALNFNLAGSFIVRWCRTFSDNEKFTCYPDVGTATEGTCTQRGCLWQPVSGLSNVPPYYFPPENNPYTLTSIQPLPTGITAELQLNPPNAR
T1 sequence (P23739 1014-1841 limits assumed): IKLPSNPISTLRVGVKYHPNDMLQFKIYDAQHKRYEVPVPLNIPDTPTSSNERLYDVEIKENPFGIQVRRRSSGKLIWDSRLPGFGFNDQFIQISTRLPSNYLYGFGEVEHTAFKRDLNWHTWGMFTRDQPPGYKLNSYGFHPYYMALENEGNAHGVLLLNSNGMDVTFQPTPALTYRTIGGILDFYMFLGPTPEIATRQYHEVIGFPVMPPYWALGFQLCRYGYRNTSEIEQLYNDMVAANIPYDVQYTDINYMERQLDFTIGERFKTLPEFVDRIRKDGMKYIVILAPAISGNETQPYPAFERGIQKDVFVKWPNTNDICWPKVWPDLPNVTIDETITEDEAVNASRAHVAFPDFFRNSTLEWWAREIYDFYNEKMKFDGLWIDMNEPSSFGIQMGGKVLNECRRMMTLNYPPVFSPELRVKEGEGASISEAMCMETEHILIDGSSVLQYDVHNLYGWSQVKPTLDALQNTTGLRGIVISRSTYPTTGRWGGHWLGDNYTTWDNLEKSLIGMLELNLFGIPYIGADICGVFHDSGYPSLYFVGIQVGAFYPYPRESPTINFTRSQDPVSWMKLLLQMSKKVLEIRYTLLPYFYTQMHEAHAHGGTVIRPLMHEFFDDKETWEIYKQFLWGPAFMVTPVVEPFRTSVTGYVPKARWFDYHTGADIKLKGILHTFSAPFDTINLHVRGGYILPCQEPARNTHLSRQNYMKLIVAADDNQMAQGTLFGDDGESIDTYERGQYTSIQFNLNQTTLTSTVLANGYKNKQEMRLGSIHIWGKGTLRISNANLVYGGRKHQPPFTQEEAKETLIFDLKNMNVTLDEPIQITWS

[3] = target: T1, Sucrase-isomaltase, intestinal; assay: Inhibition of Wistar rat intestinal isomaltase assessed as inhibition of D-glucose release after 30 mins by spectrophotometry

| SMILES | IC50 [1] | IC50 [2] | IC50 [3] |
| --- | --- | --- | --- |
| OC[C@@H]1N[C@@H](CCCCc2ccccc2)[C@H](O)[C@H]1O | 0.22 µM |  |  |
| Cc1ccc(CCCC[C@@H]2N[C@@H](CO)[C@H](O)[C@H]2O)cc1 |  | 0.045 µM | 0.63 µM |
| COc1ccc(CCCC[C@@H]2N[C@@H](CO)[C@H](O)[C@H]2O)cc1 |  | 0.13 µM | 1.8 µM |
| OC[C@@H]1N[C@@H](CCCCc2ccc(O)cc2)[C@H](O)[C@H]1O |  | 0.11 µM | 6 µM |
| OC[C@@H]1N[C@@H](CCCCc2ccc(F)cc2)[C@H](O)[C@H]1O |  | 0.17 µM | 3 µM |
| OC[C@@H]1N[C@@H](CCCCc2cc(F)cc(F)c2)[C@H](O)[C@H]1O |  | 0.026 µM | 0.22 µM |
